7 compounds from US10173974B1, “Natural product-based synthesis of novel anti-infective isothiocyanate- and isoselenocyanate-functionalized amphilectane diterpenes” (priority 2015, dated 2019) can be followed below.

Series [1] deals with P. falciparum Dd2 (drug resistant). Put plainly: SYBR Green parasite proliferation assay, P. falciparum Dd2 strain. Type of series: cell-based, Plasmodium falciparum.
Series [2] concerns P. falciparum 3D7 (chloroquine-sensitive). Nature of the series: SYBR Green parasite proliferation assay, P. falciparum 3D7 strain. The format is cell-based, Plasmodium falciparum.
For the next series, the system named is Mtb H37Rv (ATCC 27 294). Nature of the series: Microplate Alamar blue assay (MABA), antitubercular activity. Type of series: cell-based, Mycobacterium tuberculosis. Conditions: for MABA MIC: Mtb H37Rv. (In general: Resazurin is reduced to fluorescent resorufin, in cell work by metabolically active cells.)
In series [3] the test system is Vero cell line ATCC CRL-1586.
Another series is described as follows: in vitro. Conditions: African green monkey.
Setting [4] is: P. falciparum Dd2 (drug resistant), 72 h incubation, in vitro growth inhibition.
Where [5] appears, read: P. falciparum 3D7 (chloroquine-sensitive), 72 h incubation, in vitro growth inhibition.

≈ marks a conversion by molar mass, not a printed value. Like-named read-outs stand apart in the source and are kept apart here.

The term IC50 denotes the point on the concentration scale where inhibition reaches its midpoint. As usually defined, the MIC is the least concentration at which growth counts as inhibited.

With `C=C(C)C[C@@H]1C[C@H](C)[C@H]2CC[C@H](C)[C@@]3(N=C=[Se])CCC(=C)[C@@H]1[C@H]23` [Compound 6, 8-Isoselenocyanoamphilecta-11(20),15-diene], the IC50 in series [1] was 0.149 µM; in series [2], 0.189 µM. Also, the “MABA MIC” value in the series with Mtb H37Rv (ATCC 27 294) was determined as 2.1 µM.

The compound “8-Isothiocyano-15-isoselenocyano-11(20)-amphilectene (3) and 8-Isoselenocyano-15-isothiocyano-11(20)-amphilectene (4) [Compound 3 and 4]” returned a CC50 in series [3] of 78.1 µM.

In the case of `CO[C@H]1/C=C/O[C@@]2(C)Oc3c(C)c(O)c4c(O)c(c(/C=N/N5CCN(C)CC5)c(O)c4c3C2=O)NC(=O)/C(C)=C\C=C\[C@H](C)[C@H](O)[C@@H](C)[C@@H](O)[C@@H](C)[C@H](OC(C)=O)[C@@H]1C` [RMP, rifampicin, reference compound], in the series with Mtb H37Rv (ATCC 27 294) (Mycobacterium tuberculosis, read-out: MABA MIC), the MIC was found to be 0.09 µM (≈ 0.0741 µg/mL). The CC50 in the series “in vitro” was more than 100 µM.

Take `C=C1CC[C@@]2(N=C=S)[C@H]3[C@H](CC[C@@H]2C)[C@@H](C)C[C@@H](CC(C)(C)N=C=S)[C@H]13` [Compound 2, 8,15-Diisothiocyano-11(20)-amphilectene]: the values for the IC50 in series [1] (setting [4]) and in series [2] (setting [5]) were 11.6 µM and 11.8 µM, respectively. The “MABA MIC” value in the series on Mtb H37Rv (ATCC 27 294) worked out at 99.1 µM.

For `CCN(CC)CCCC(C)Nc1ccnc2cc(Cl)ccc12` (centres unmarked) [CQ, chloroquine, reference compound], the IC50 came to 0.0519 µM in series [1] (Plasmodium falciparum, P. falciparum Dd2 (drug resistant), 72 h incubation, in vitro growth inhibition) and 0.0109 µM in series [2] (Plasmodium falciparum, P. falciparum 3D7 (chloroquine-sensitive), 72 h incubation, in vitro growth inhibition).

As to `[C-]#[N+]C(C)(C)CC1CC(C)C2CCC(C)C3([N+]#[C-])CCC(=C)C1C23` (single isomer, unassigned; (-)) [Compound 1, (−)-8,15-diisocyano-11(20)-amphilectene, reference compound], the IC50 in series [1] (setting [4]) amounted to 0.0031 µM; in series [2] (setting [5]), 0.0012 µM. For the same compound, in the series on Mtb H37Rv (ATCC 27 294), the “MABA MIC” value came to 9.8 µM.

In the case of `C=C1CC[C@@]2(N=C=[Se])[C@H]3[C@H](CC[C@@H]2C)[C@@H](C)C[C@@H](CC(C)(C)N=C=[Se])[C@H]13` [Compound 5, 8,15-Diisoselenocyano-11(20)-amphilectene], the IC50 in series [1] (setting [4]) stood at 0.0066 µM; in series [2] (setting [5]), 0.0025 µM. Also, the “MABA MIC” value with Mtb H37Rv (ATCC 27 294) stood at 3.9 µM.
